Patent US20230085307A1, “PYRIDAZINONE COMPOUND AND HERBICIDE” (NISSAN CHEMICAL CORPORATION, priority 2019, published 2023)

Legend:
lambsquarters [1] = experiment: Test Example 5: herbicidal effect by foliage application, plastic box (Table 20, symbol O); format: in vivo, lambsquarters (Chenopodium album); conditions: foliage application, 320 g/ha, evaluated three weeks after application
Method in brief: (§1)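 Post-emergence foliar test in sterilized diluvial soil. Compound applied as water-diluted emulsion at a predetermined rate to 14-day-old plants; evaluation at three weeks.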

velvetleaf [2] = experiment: Test Example 4: herbicidal effect by soil treatment (Table 19, symbol M); format: in vivo, velvetleaf (Abutilon theophrasti)
Method in brief: (§2)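 Emulsion of test compound, water-diluted to predetermined amount, sprayed on soil after sowing (seed depth ~1.5 cm, sterilized diluvial soil). Greenhouse, 25–30° C. Effect graded at three weeks post-spray.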

lambsquarters [3] = experiment: Test Example 4: herbicidal effect by soil treatment (Table 19, symbol O); format: in vivo, lambsquarters (Chenopodium album)
Method in brief: as §2

wild oat [4] = experiment: Test Example 5: herbicidal effect by foliage application, plastic box (Table 20, symbol I); format: in vivo, wild oat (Avena fatua); conditions: foliage application, 320 g/ha, evaluated three weeks after application
Method in brief: as §1

barnyard grass [5] = experiment: Test Example 3: herbicidal effect by foliage application, Wagner pot (Table 18, symbol H); format: in vivo, barnyard grass (Echinochloa crus-galli)
Method in brief: (§3)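 Plants were sown in alluvial soil held under 0.1–0.5 cm standing water and grown 14 days in a greenhouse at 25–30 °C. An emulsifiable formulation, water-diluted to the set dose, was then sprayed onto the foliage, and effects were scored three weeks later using previously defined criteria.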

blackgrass [6] = experiment: Test Example 4: herbicidal effect by soil treatment (Table 19, symbol J); format: in vivo, blackgrass (Alopecurus myosuroides)
Method in brief: as §2

southern crabgrass [7] = experiment: Test Example 4: herbicidal effect by soil treatment (Table 19, symbol F); format: in vivo, southern crabgrass (Digitaria ciliaris)
Method in brief: as §2

Italian ryegrass [8] = experiment: Test Example 5: herbicidal effect by foliage application, plastic box (Table 20, symbol K); format: in vivo, Italian ryegrass (Lolium multiflorum); conditions: foliage application, 320 g/ha, evaluated three weeks after application
Method in brief: as §1

chickweed [9] = experiment: Test Example 4: herbicidal effect by soil treatment (Table 19, symbol P); format: in vivo, common chickweed (Stellaria media)
Method in brief: as §2

blackgrass [10] = experiment: Test Example 5: herbicidal effect by foliage application, plastic box (Table 20, symbol J); format: in vivo, blackgrass (Alopecurus myosuroides); conditions: foliage application, 320 g/ha, evaluated three weeks after application
Method in brief: as §1

redroot pigweed [11] = experiment: Test Example 5: herbicidal effect by foliage application, plastic box (Table 20, symbol N); format: in vivo, redroot pigweed (Amaranthus retroflexus); conditions: foliage application, 320 g/ha, evaluated three weeks after application
Method in brief: as §1

windgrass [12] = experiment: Test Example 5: herbicidal effect by foliage application, plastic box (Table 20, symbol L); format: in vivo, windgrass (Apera spica-venti); conditions: foliage application, 320 g/ha, evaluated three weeks after application
Method in brief: as §1

southern crabgrass [13] = experiment: Test Example 5: herbicidal effect by foliage application, plastic box (Table 20, symbol F); format: in vivo, southern crabgrass (Digitaria ciliaris); conditions: foliage application, 320 g/ha, evaluated three weeks after application
Method in brief: as §1

Italian ryegrass [14] = experiment: Test Example 4: herbicidal effect by soil treatment (Table 19, symbol K); format: in vivo, Italian ryegrass (Lolium multiflorum)
Method in brief: as §2

green foxtail [15] = experiment: Test Example 4: herbicidal effect by soil treatment (Table 19, symbol G); format: in vivo, green foxtail (Setaria viridis)
Method in brief: as §2

wild oat [16] = experiment: Test Example 4: herbicidal effect by soil treatment (Table 19, symbol I); format: in vivo, wild oat (Avena fatua)
Method in brief: as §2

barnyard grass [17] = experiment: Test Example 5: herbicidal effect by foliage application, plastic box (Table 20, symbol H); format: in vivo, barnyard grass (Echinochloa crus-galli); conditions: foliage application, 320 g/ha, evaluated three weeks after application
Method in brief: as §1

redroot pigweed [18] = experiment: Test Example 4: herbicidal effect by soil treatment (Table 19, symbol N); format: in vivo, redroot pigweed (Amaranthus retroflexus)
Method in brief: as §2

rice flat sedge = experiment: Test Example 3: herbicidal effect by foliage application, Wagner pot (Table 18, symbol E); format: in vivo, rice flat sedge (Cyperus iria)
Method in brief: as §3

persian speedwell [19] = experiment: Test Example 4: herbicidal effect by soil treatment (Table 19, symbol R); format: in vivo, Persian speedwell (Veronica persica)
Method in brief: as §2

chickweed [20] = experiment: Test Example 5: herbicidal effect by foliage application, plastic box (Table 20, symbol P); format: in vivo, common chickweed (Stellaria media); conditions: foliage application, 320 g/ha, evaluated three weeks after application
Method in brief: as §1

windgrass [21] = experiment: Test Example 4: herbicidal effect by soil treatment (Table 19, symbol L); format: in vivo, windgrass (Apera spica-venti)
Method in brief: as §2

barnyard grass [22] = experiment: Test Example 4: herbicidal effect by soil treatment (Table 19, symbol H); format: in vivo, barnyard grass (Echinochloa crus-galli)
Method in brief: as §2

Chinese sprangletop = experiment: Test Example 3: herbicidal effect by foliage application, Wagner pot (Table 18, symbol D); format: in vivo, chinese sprangletop (Leptochloa chinensis)
Method in brief: as §3

velvetleaf [23] = experiment: Test Example 5: herbicidal effect by foliage application, plastic box (Table 20, symbol M); format: in vivo, velvetleaf (Abutilon theophrasti); conditions: foliage application, 320 g/ha, evaluated three weeks after application
Method in brief: as §1

persian speedwell [24] = experiment: Test Example 5: herbicidal effect by foliage application, plastic box (Table 20, symbol R); format: in vivo, Persian speedwell (Veronica persica); conditions: foliage application, 320 g/ha, evaluated three weeks after application
Method in brief: as §1

green foxtail [25] = experiment: Test Example 5: herbicidal effect by foliage application, plastic box (Table 20, symbol G); format: in vivo, green foxtail (Setaria viridis); conditions: foliage application, 320 g/ha, evaluated three weeks after application
Method in brief: as §1

[26] = amount of applied herbicide 320 g/ha

## Cc1nn(C)c(=O)c(-c2c(-c3ccc(Cl)cc3)sc3ccc(Cl)cc23)c1O [2-099]
Lambsquarters [1]
  herbicidal effect on O: lambsquarters: 5 (Herbicidal rate of 90% or more (almost completely withered))
Velvetleaf [2]; 320 g/ha
  herbicidal effect rating, M: velvetleaf: 0 (Herbicidal rate of 5% or less (almost no effect))
Lambsquarters [3]; 320 g/ha
  herbicidal effect rating, O: lambsquarters: 3 (Herbicidal rate of 40% or more and less than 70%)
Wild oat [4]
  herbicidal effect on I: wild oat: 5 (Herbicidal rate of 90% or more (almost completely withered))
Barnyard grass [5]; 320 g/ha
  herbicidal effect on H (barnyard grass), rating 0-5: 5 (Herbicidal rate of 90% or more (almost completely withered))
Blackgrass [6]; 320 g/ha
  herbicidal effect rating, J: blackgrass: 2 (Herbicidal rate of 20% or more and less than 40%)
Southern crabgrass [7]; 320 g/ha
  herbicidal effect rating, F: southern crabgrass: 0 (Herbicidal rate of 5% or less (almost no effect))
Italian ryegrass [8]
  herbicidal effect on K: Italian ryegrass: 5 (Herbicidal rate of 90% or more (almost completely withered))
Chickweed [9]; 320 g/ha
  herbicidal effect rating, P: chickweed: 4 (Herbicidal rate of 70% or more and less than 90%)
Blackgrass [10]
  herbicidal effect on J: blackgrass: 4 (Herbicidal rate of 70% or more and less than 90%)
Redroot pigweed [11]
  herbicidal effect on N: redroot pigweed: 5 (Herbicidal rate of 90% or more (almost completely withered))
Windgrass [12]
  herbicidal effect on L: windgrass: 5 (Herbicidal rate of 90% or more (almost completely withered))
Southern crabgrass [13]
  herbicidal effect on F: southern crabgrass: 5 (Herbicidal rate of 90% or more (almost completely withered))
Italian ryegrass [14]; 320 g/ha
  herbicidal effect rating, K: Italian ryegrass: 5 (Herbicidal rate of 90% or more (almost completely withered))
Green foxtail [15]; 320 g/ha
  herbicidal effect rating, G: green foxtail: 2 (Herbicidal rate of 20% or more and less than 40%)
Wild oat [16]; 320 g/ha
  herbicidal effect rating, I: wild oat: 0 (Herbicidal rate of 5% or less (almost no effect))
Barnyard grass [17]
  herbicidal effect on H: barnyard grass: 5 (Herbicidal rate of 90% or more (almost completely withered))
Redroot pigweed [18]; 320 g/ha
  herbicidal effect rating, N: redroot pigweed: 3 (Herbicidal rate of 40% or more and less than 70%)
Rice flat sedge; 320 g/ha
  herbicidal effect on E (rice flat sedge), rating 0-5: 5 (Herbicidal rate of 90% or more (almost completely withered))
Persian speedwell [19]; 320 g/ha
  herbicidal effect rating, R: persian speedwell: 1 (Herbicidal rate of 5% or more and less than 20%)
Chickweed [20]
  herbicidal effect on P: chickweed: 5 (Herbicidal rate of 90% or more (almost completely withered))
Windgrass [21]; 320 g/ha
  herbicidal effect rating, L: windgrass: 4 (Herbicidal rate of 70% or more and less than 90%)
Barnyard grass [22]; 320 g/ha
  herbicidal effect rating, H: barnyard grass: 0 (Herbicidal rate of 5% or less (almost no effect))
Chinese sprangletop; 320 g/ha
  herbicidal effect on D (Chinese sprangletop), rating 0-5: 4 (Herbicidal rate of 70% or more and less than 90%)
Velvetleaf [23]
  herbicidal effect on M: velvetleaf: 5 (Herbicidal rate of 90% or more (almost completely withered))
Persian speedwell [24]
  herbicidal effect on R: persian speedwell: 5 (Herbicidal rate of 90% or more (almost completely withered))
Green foxtail [25]
  herbicidal effect on G: green foxtail: 5 (Herbicidal rate of 90% or more (almost completely withered))

## CCCC(=O)Oc1c(C)nn(C)c(=O)c1-c1c(-c2ccc(F)cc2)sc2ccc(C)cc12 [2-135]
Lambsquarters [1]
  herbicidal effect on O: lambsquarters: 3 (Herbicidal rate of 40% or more and less than 70%)
Velvetleaf [2]; [26]
  M: velvetleaf, herbicidal effect rating: 0 (Herbicidal rate of 5% or less (almost no effect))
Lambsquarters [3]; [26]
  O: lambsquarters, herbicidal effect rating: 0 (Herbicidal rate of 5% or less (almost no effect))
Wild oat [4]
  herbicidal effect on I: wild oat: 0 (Herbicidal rate of 5% or less (almost no effect))
Barnyard grass [5]; [26]
  herbicidal effect on H: barnyard grass: 1 (Herbicidal rate of 5% or more and less than 20%)
Blackgrass [6]; [26]
  J: blackgrass, herbicidal effect rating: 0 (Herbicidal rate of 5% or less (almost no effect))
Southern crabgrass [7]; [26]
  F: southern crabgrass, herbicidal effect rating: 0 (Herbicidal rate of 5% or less (almost no effect))
Italian ryegrass [8]
  herbicidal effect on K: Italian ryegrass: 3 (Herbicidal rate of 40% or more and less than 70%)
Chickweed [9]; [26]
  P: chickweed, herbicidal effect rating: 3 (Herbicidal rate of 40% or more and less than 70%)
Blackgrass [10]
  herbicidal effect on J: blackgrass: 0 (Herbicidal rate of 5% or less (almost no effect))
Redroot pigweed [11]
  herbicidal effect on N: redroot pigweed: 5 (Herbicidal rate of 90% or more (almost completely withered))
Windgrass [12]
  herbicidal effect on L: windgrass: 0 (Herbicidal rate of 5% or less (almost no effect))
Southern crabgrass [13]
  herbicidal effect on F: southern crabgrass: 0 (Herbicidal rate of 5% or less (almost no effect))
Italian ryegrass [14]; [26]
  K: Italian ryegrass, herbicidal effect rating: 1 (Herbicidal rate of 5% or more and less than 20%)
Green foxtail [15]; [26]
  G: green foxtail, herbicidal effect rating: 0 (Herbicidal rate of 5% or less (almost no effect))
Wild oat [16]; [26]
  I: wild oat, herbicidal effect rating: 0 (Herbicidal rate of 5% or less (almost no effect))
Barnyard grass [17]
  herbicidal effect on H: barnyard grass: 0 (Herbicidal rate of 5% or less (almost no effect))
Redroot pigweed [18]; [26]
  N: redroot pigweed, herbicidal effect rating: 0 (Herbicidal rate of 5% or less (almost no effect))
Rice flat sedge; [26]
  herbicidal effect on E: rice flat sedge: 3 (Herbicidal rate of 40% or more and less than 70%)
Persian speedwell [19]; [26]
  R: persian speedwell, herbicidal effect rating: 0 (Herbicidal rate of 5% or less (almost no effect))
Chickweed [20]
  herbicidal effect on P: chickweed: 5 (Herbicidal rate of 90% or more (almost completely withered))
Windgrass [21]; [26]
  L: windgrass, herbicidal effect rating: 0 (Herbicidal rate of 5% or less (almost no effect))
Barnyard grass [22]; [26]
  H: barnyard grass, herbicidal effect rating: 0 (Herbicidal rate of 5% or less (almost no effect))
Chinese sprangletop; [26]
  herbicidal effect on D: Chinese sprangletop: 0 (Herbicidal rate of 5% or less (almost no effect))
Velvetleaf [23]
  herbicidal effect on M: velvetleaf: 4 (Herbicidal rate of 70% or more and less than 90%)
Persian speedwell [24]
  herbicidal effect on R: persian speedwell: 1 (Herbicidal rate of 5% or more and less than 20%)
Green foxtail [25]
  herbicidal effect on G: green foxtail: 0 (Herbicidal rate of 5% or less (almost no effect))
